The values below come from ChEMBL document CHEMBL1135849, “Hydroxamate based inhibitors of adenylyl cyclase. Part 1: the effect of acyclic linkers on P-site binding” (Bioorg Med Chem Lett, 2002).

Sequence of Adenylate cyclase type 5 (O95622 whole entry): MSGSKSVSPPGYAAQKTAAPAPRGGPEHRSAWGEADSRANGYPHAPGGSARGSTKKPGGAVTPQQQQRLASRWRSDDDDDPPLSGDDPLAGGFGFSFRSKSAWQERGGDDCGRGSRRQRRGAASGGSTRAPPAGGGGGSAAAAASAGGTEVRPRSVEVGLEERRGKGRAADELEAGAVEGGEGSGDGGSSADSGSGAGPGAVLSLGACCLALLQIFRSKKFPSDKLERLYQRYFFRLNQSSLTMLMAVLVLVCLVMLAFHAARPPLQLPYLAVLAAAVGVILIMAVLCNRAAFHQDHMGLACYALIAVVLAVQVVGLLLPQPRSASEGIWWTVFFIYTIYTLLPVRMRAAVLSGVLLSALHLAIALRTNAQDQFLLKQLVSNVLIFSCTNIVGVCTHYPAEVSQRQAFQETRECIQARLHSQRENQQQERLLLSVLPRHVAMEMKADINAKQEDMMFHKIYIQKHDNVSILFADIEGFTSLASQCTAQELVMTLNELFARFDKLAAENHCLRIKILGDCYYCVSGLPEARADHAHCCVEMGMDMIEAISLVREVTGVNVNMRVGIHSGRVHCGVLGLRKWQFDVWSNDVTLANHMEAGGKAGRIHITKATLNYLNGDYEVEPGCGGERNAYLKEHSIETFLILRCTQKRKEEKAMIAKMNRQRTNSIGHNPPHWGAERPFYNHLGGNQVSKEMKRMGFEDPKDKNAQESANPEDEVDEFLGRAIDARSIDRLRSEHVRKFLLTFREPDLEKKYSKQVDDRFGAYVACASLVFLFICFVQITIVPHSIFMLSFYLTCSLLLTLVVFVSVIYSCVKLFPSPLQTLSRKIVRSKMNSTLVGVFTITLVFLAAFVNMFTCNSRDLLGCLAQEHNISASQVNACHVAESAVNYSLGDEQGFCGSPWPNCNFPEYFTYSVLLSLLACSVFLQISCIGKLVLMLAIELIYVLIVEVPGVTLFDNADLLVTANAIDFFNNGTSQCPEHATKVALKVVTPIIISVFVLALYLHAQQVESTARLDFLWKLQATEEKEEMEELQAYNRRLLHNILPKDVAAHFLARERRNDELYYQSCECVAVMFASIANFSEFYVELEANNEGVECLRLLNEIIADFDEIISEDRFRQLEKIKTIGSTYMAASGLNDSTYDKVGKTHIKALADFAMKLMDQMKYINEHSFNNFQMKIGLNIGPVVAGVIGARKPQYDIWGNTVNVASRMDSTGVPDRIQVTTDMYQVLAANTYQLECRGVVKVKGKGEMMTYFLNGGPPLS

The assay addresses Adenylate cyclase type 5 (Homo sapiens, UniProt O95622). The assay can be described thus: Inhibition of recombinant human adenylate cyclase 5 expressed in HEK293 cells. The class given is cell-based.
For `Nc1ncnc2c1ncn2CCCCC(=O)O`, the IC50 was greater than 200 µM.
For the compound `CC(C)(C)OC(=O)N(CCn1cnc2c(N)ncnc21)CC(=O)O`, the IC50 is greater than 200 µM.
Next, `Nc1ncnc2c1ncn2CCCCCC(=O)O`: greater than 200 µM; `COC(=O)CCCCn1cnc2c(N)ncnc21`: greater than 200 µM; `Nc1ncnc2c1ncn2CCCCCCC(=O)O`: greater than 200 µM.
Regarding `Nc1ncnc2c1ncn2CCCOCC(=O)O`, the IC50 came out at 140 µM.
Turning to `CCOC(=O)COCCCn1cnc2c(N)ncnc21`, the half-maximal inhibitory concentration (IC50) was greater than 200 µM.
On to `CC(=O)N(CCn1cnc2c(N)ncnc21)CC(=O)O`, for which the IC50 is greater than 200 µM.
Regarding `Nc1ncnc2c1ncn2CCCCCCC(=O)NO`, the IC50 was greater than 200 µM.
For the compound `COC(=O)CN(C)CCn1cnc2c(N)ncnc21`, the IC50 is greater than 200 µM.
For `Nc1ncnc2c1ncn2CCCOCC(=O)NO`, the IC50 was found to be 94 µM.
Take `Nc1ncnc2c1ncn2CCCNCC(=O)O`: the IC50 was greater than 200 µM.
Regarding `Nc1ncnc2c1ncn2CCNCC(=O)NO`, the half-inhibitory concentration (IC50) is greater than 200 µM.
For `CN(CCn1cnc2c(N)ncnc21)CC(=O)NO`, the IC50 is 15.3 µM.
Next, `CC(=O)N(CCn1cnc2c(N)ncnc21)CC(=O)NO`: greater than 200 µM.
`COC(=O)CNCCCn1cnc2c(N)ncnc21`: the concentration for half-maximal inhibition (IC50) is greater than 200 µM.
Then `Nc1ncnc2c1ncn2CCNCC(=O)O`, with greater than 200 µM.
Next, `CC(C)(C)OC(=O)N(CCCn1cnc2c(N)ncnc21)CC(=O)NO`: greater than 200 µM; `Nc1ncnc2c1ncn2CCCC(=O)NO`: 7.9 µM; `CCOC(=O)CCCCCCn1cnc2c(N)ncnc21`: greater than 200 µM.
In the case of `CCOC(=O)CCCCCn1cnc2c(N)ncnc21`, the 50% inhibitory concentration (IC50) was greater than 200 µM.
Turning to `CC(C)(C)OC(=O)N(CCCn1cnc2c(N)ncnc21)CC(=O)O`, the half-maximal inhibitory concentration (IC50) was greater than 200 µM.
On to `COC(=O)CN(CCn1cnc2c(N)ncnc21)C(=O)OC(C)(C)C`, for which the concentration for half-maximal inhibition (IC50) was greater than 200 µM.
Then `CC(C)(C)OC(=O)N(CCn1cnc2c(N)ncnc21)CC(=O)NO`, with greater than 200 µM; and `COC(=O)CNCCn1cnc2c(N)ncnc21`, with greater than 200 µM; and `Nc1ncnc2c1ncn2CCC(=O)NO`, with greater than 200 µM.
Next, `COC(=O)CN(CCn1cnc2c(N)ncnc21)C(C)=O`: greater than 200 µM; `Nc1ncnc2c1ncn2CCCNCC(=O)NO`: greater than 200 µM; `Nc1ncnc2c1ncn2CCCCC(=O)NO`: 7.6 µM.
Next, `Nc1ncnc2c1ncn2CCCCCC(=O)NO`: 35.4 µM.

Broadly, the IC50 is the concentration that gives 50% inhibition.
